# Source: publication PMC7127754 (Bioorganic & Medicinal Chemistry, 2008)
# Molecular target: SARS-CoV 3CL protease (Severe acute respiratory syndrome coronavirus, UniProt P0C6X7)
# Test: biochemical
# Settings: IC50 (inhibition of SARS-CoV 3CL protease)
row,SMILES,IC50 [µM]
1,"CCCCCCCCC(=O)N[C@@H](CC(C)C)C(=O)NC(Cc1ccccc1)C(=O)C(F)(F)F (mixture of isomers) [Compound 5g, 3-{N-[N-CH3(CH2)7(C?O)-L-Leu]}-4-phenyl-1,1,1-trifluorobutan-2-one]",> 50
2,"C[C@H](NC(=O)CC[C@H](NC(=O)OC(C)(C)C)C(=O)OC(C)(C)C)C(=O)NCC(=O)C(F)(F)F [Compound 5d, 3-{N-[N-tert-Butoxycarbonyl-L-γGlu(OtBu)-L-Ala]}-1,1,1-trifluoropropan-2-one]",40
